# Counter-ions that a name gives are not always drawn.
# Test: Stability study of crystalline vs amorphous isavuconazonium sulfate: impurity content by HPLC after storage
# Format: physicochemical
# Details: for Impurity Compound IV content / Impurity Compound IX content / Impurity Compound VI content / Impurity Compound VII content / Impurity Compound VIII content / Impurity Compound X content: HPLC; for Storage stability (in words): 3 months at −20° C. and 2° to 8° C.
# Experimental: High performance liquid chromatography (HPLC) was performed with the conditions described below for detecting chemical purity:
# Column: Xterra MS C18, 150×4.6 mm, 3.5μ; Column Temperature: 45° C., Mobile phase: Mobile Phase A; 0.1% Perchloric acid in water: Mobile Phase B=Methanol
# Diluent: Methanol: 0.3% Sodium bisulphate (70:30 v/v); Flow Rate: 1.0 mL/Minutes, Detection: 260 nm; Injection Volume: 20 μL.
# Comparative stability data was generated for crystalline isavuconazonium sulfate (Form GL-1) and the amorphous form of isavuconazonium sulfate (prepared as described in Comparative Example 1) stored at a temperature of −20° C. and from 2° to 8° C. for three (3) months (i.e., 12 weeks). In particular, the crystalline isavuconazonium sulfate (Form GL-1) obtained as per Example 3 and the amorphous form of isavuconazonium sulfate of Comparative Example 1 were taken in an appropriate amount, and packed in a transparent polyethylene bag. The bag was sealed under vacuum and then enclosed in a black LDPE (Low-density polyethylene) bag which in turn is kept in triple laminated aluminium pouches sealed at three sides. The fourth side of the bag is then sealed under vacuum and kept in a HDPE (High-density polyethylene) container, and stored at −20° C. and from 2° to 8° C. for 3 months (i.e., 12 weeks). Both materials were analyzed after 3 months of storage by the HPLC method described above.
# [1] = 3 Month at 2°-8° C., monosulfate salt
# [2] = 3 Month at −20° C., monosulfate salt
Structure (SMILES),Impurity Compound IV content [1],Impurity Compound IX content [1],Impurity Compound VI content [1],Impurity Compound VII content [1],Impurity Compound VIII content [1],Impurity Compound X content [1],Impurity Compound IV content [2],Impurity Compound IX content [2],Impurity Compound VI content [2],Impurity Compound VII content [2],Impurity Compound VIII content [2],Impurity Compound X content [2],"Impurity Compound IV content (Initial, monosulfate salt)","Impurity Compound IX content (Initial, monosulfate salt)","Impurity Compound VI content (Initial, monosulfate salt)","Impurity Compound VII content (Initial, monosulfate salt)","Impurity Compound VIII content (Initial, monosulfate salt)","Impurity Compound X content (Initial, monosulfate salt)",further results
"CNCC(=O)OCc1cccnc1N(C)C(=O)OC(C)n1cn[n+](C[C@](O)(c2cc(F)ccc2F)[C@@H](C)c2nc(-c3ccc(C#N)cc3)cs2)c1 (stereo partly drawn) [Crystalline isavuconazonium sulfate (Form GL-1) of Example 3] [(2-{[(1-{1-[(2R,3R)-3-[4-(4-cyanophenyl)-1,3-thiazol-2-yl]-2-(2,5-difluorophenyl)-2-hydroxybutyl]-1H-1,2,4-triazol-4-ium-4-yl}ethoxy)carbonyl](methyl)amino}pyridin-3-yl)methyl-N-methylglycinate monosulfate salt]",0.07%,0.13%,0.03%,0.08%,0.02%,0.07%,0.05%,0.09%,0.02%,0.08%,0.03%,0.08%,0.03%,0.09%,0.01%,0.08%,0.03%,0.05%,"Storage stability (in words) (listed as Form GL-1, monosulfate salt): more stable compared to the amorphous form of isavuconazonium sulfate; Storage stability (in words) (listed as crystalline isavuconazonium sulfate (Form GL-1), monosulfate salt): stable at 3 months; Period over which stability is maintained (stored at −20° C. and 2° to 8° C., sealed under vacuum): ≥ 3 months"
"CNCC(=O)OCc1cccnc1N(C)C(=O)OC(C)n1cn[n+](C[C@](O)(c2cc(F)ccc2F)[C@@H](C)c2nc(-c3ccc(C#N)cc3)cs2)c1 (stereo partly drawn) [Amorphous isavuconazonium sulfate prepared as per comparativ] [(2-{[(1-{1-[(2R,3R)-3-[4-(4-cyanophenyl)-1,3-thiazol-2-yl]-2-(2,5-difluorophenyl)-2-hydroxybutyl]-1H-1,2,4-triazol-4-ium-4-yl}ethoxy)carbonyl](methyl)amino}pyridin-3-yl)methyl-N-methylglycinate monosulfate salt, reference compound]",0.76%,2.5%,0.33%,0.12%,0.44%,0.04%,0.41%,1.26%,0.10%,0.12%,0.44%,0.03%,0.21%,0.51%,0.04%,0.12%,0.44%,0.03%,"Stability of the solid form (in words) (generates impurities of formulae IV, VI, VII, VIII, IX, X and XI): unstable"

# — patent US20250145610A1, “CRYSTALLINE FORM OF ISAVUCONAZONIUM SULFATE AND A PROCESS FOR ITS PREPARATION” (Glenmark Life Sciences Limited, priority 2022, published 2025)
